Test results: publication PMC12198282, “Application of a high-density microelectrode array assay using a 3D human iPSC-derived brain microphysiological system model for in vitro neurotoxicity screening of environmental compounds” (Archives of Toxicology, 2025)
“Also recorded” adds a separate entry of the source. Where two headings read alike, the source gives them in different places.

Key:
[1] = tested on: human iPSC-derived 3D BrainSpheres; assay: BrainSphere MEA assay (HD-MEA, 13-day exposure, concentration-response); format: cell-based; conditions: for EC (benchmark response 1.349 SD) / AC50: Homo sapiens; for EC (benchmark response 1.349 SD): 312 h, tcplfit2 BMD at benchmark response (1.349*SD of baseline controls); for AC50: concentration at 50% maximal activity, Supplement 3 prints it also for curves with hit call 0
Method in brief: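 Recordings used a 5× RMS spike threshold and 600 s network scans of fixed electrode regions, each region clustered as one BrainSphere. Spheres had 7 weeks of differentiation and 48 h attachment on coated HD-MEA chips before day 0 of the 13-day concentration-response exposure. At least three independent plates were run.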

2D rat cortical cultures [2] = conditions: cited from earlier work; for AC50: rNFA mc5
2D rat cortical cultures [3] = conditions: rNFA mc5 hit call; cytotoxicity AlamarBlue; cited from earlier work
2D rat cortical cultures [4] = conditions: rNFA mc5 hit call; cytotoxicity LDH; cited from earlier work

**Q.** With CCCC(CCC)C(=O)O [Sodium valproate] as the compound, how does the “Bioactivity across the 10 MEA endpoints of the BrainSphere MEA assay (in words)” value [1] read?
**A.** Its value is “inactive across all metrics; also recorded: inactive in the BrainSphere MEA”.

**Q.** And the EC (benchmark response 1.349 SD) ([1]; read-out: BMD Mean.Spheroid.Burst.ISI)?
**A.** The EC (benchmark response 1.349 SD) was 85 µM.

**Q.** What about the EC (benchmark response 1.349 SD) ([1]; read-out: BMD Mean.Spheroid.Nonburst.ISI) of the same compound?
**A.** Its EC (benchmark response 1.349 SD) is 213 µM.

**Q.** And the AC50 ([1]; read-out: ac50 Mean.Spheroid.Burst.Duration)?
**A.** Its AC50 is 45 µM.

**Q.** What about the AC50 ([1]; read-out: ac50 Mean.Spheroid.Burst.ISI) of the same compound?
**A.** The AC50 was 85 µM.

**Q.** What about the AC50 ([1]; read-out: ac50 Spheroid.Burst.Frequency) of the same compound?
**A.** Its AC50 is 84 µM.

**Q.** And the “Number of active endpoints in the rNFA” value (2D rat cortical cultures [2]; of 17 MEA endpoints, ref Brown et al. [2016], Carstens et al. [2022], Frank et al. [2017b], Shafer et al. [2019], ToxCast invitrodb (v4.2))?
**A.** Its value is “two”.

**Q.** And the AC50 (2D rat cortical cultures [2]; aenm per_network_spike_spike_number_mean, read-out: ac50 CCTE_Shafer_MEA_dev_per_network_spike_spike_number_mean)?
**A.** The AC50 was 576 µM.

**Q.** And the AC50 (2D rat cortical cultures [2]; aenm per_network_spike_spike_percent, read-out: ac50 CCTE_Shafer_MEA_dev_per_network_spike_spike_percent)?
**A.** Its AC50 is 488 µM.

**Q.** And the “hitc CCTE_Shafer_MEA_dev_active_electrodes_number” value (2D rat cortical cultures [2]; rNFA mc5 hit call, aenm active_electrodes_number)?
**A.** Its value is 0.

**Q.** What about the “hitc CCTE_Shafer_MEA_dev_burst_duration_mean” value (2D rat cortical cultures [2]; rNFA mc5 hit call, aenm burst_duration_mean) of the same compound?
**A.** The value was 0.

**Q.** And the “hitc CCTE_Shafer_MEA_dev_burst_rate” value (2D rat cortical cultures [2]; rNFA mc5 hit call, aenm burst_rate)?
**A.** The value was 0.

**Q.** And the “hitc CCTE_Shafer_MEA_dev_bursting_electrodes_number” value (2D rat cortical cultures [2]; rNFA mc5 hit call, aenm bursting_electrodes_number)?
**A.** Its value is 0.

**Q.** And the “hitc CCTE_Shafer_MEA_dev_correlation_coefficient_mean” value (2D rat cortical cultures [2]; rNFA mc5 hit call, aenm correlation_coefficient_mean)?
**A.** The value was 0.

**Q.** And the “hitc CCTE_Shafer_MEA_dev_firing_rate_mean” value (2D rat cortical cultures [2]; rNFA mc5 hit call, aenm firing_rate_mean)?
**A.** The value was 0.

**Q.** And the “hitc CCTE_Shafer_MEA_dev_inter_network_spike_interval_mean” value (2D rat cortical cultures [2]; rNFA mc5 hit call, aenm inter_network_spike_interval_mean)?
**A.** The value was 0.

**Q.** What about the “hitc CCTE_Shafer_MEA_dev_interburst_interval_mean” value (2D rat cortical cultures [2]; rNFA mc5 hit call, aenm interburst_interval_mean) of the same compound?
**A.** Its value is 0.

**Q.** What about the “hitc CCTE_Shafer_MEA_dev_mutual_information_norm” value (2D rat cortical cultures [2]; rNFA mc5 hit call, aenm mutual_information_norm) of the same compound?
**A.** The value was 0.

**Q.** What about the “hitc CCTE_Shafer_MEA_dev_network_spike_duration_std” value (2D rat cortical cultures [2]; rNFA mc5 hit call, aenm network_spike_duration_std) of the same compound?
**A.** The value was 0.

**Q.** What about the “hitc CCTE_Shafer_MEA_dev_network_spike_number” value (2D rat cortical cultures [2]; rNFA mc5 hit call, aenm network_spike_number) of the same compound?
**A.** The value was 0.

**Q.** What about the “hitc CCTE_Shafer_MEA_dev_network_spike_peak” value (2D rat cortical cultures [2]; rNFA mc5 hit call, aenm network_spike_peak) of the same compound?
**A.** The value was 0.

**Q.** And the “hitc CCTE_Shafer_MEA_dev_per_burst_interspike_interval” value (2D rat cortical cultures [2]; rNFA mc5 hit call, aenm per_burst_interspike_interval)?
**A.** The value was 0.

**Q.** What about the “hitc CCTE_Shafer_MEA_dev_per_burst_spike_percent” value (2D rat cortical cultures [2]; rNFA mc5 hit call, aenm per_burst_spike_percent) of the same compound?
**A.** Its value is 0.

**Q.** And the “hitc CCTE_Shafer_MEA_dev_per_network_spike_spike_number_mean” value (2D rat cortical cultures [2]; rNFA mc5 hit call, aenm per_network_spike_spike_number_mean)?
**A.** The value was 1.

**Q.** And the “hitc CCTE_Shafer_MEA_dev_per_network_spike_spike_percent” value (2D rat cortical cultures [2]; rNFA mc5 hit call, aenm per_network_spike_spike_percent)?
**A.** Its value is 1.

**Q.** What about the “hitc CCTE_Shafer_MEA_dev_spike_duration_mean” value (2D rat cortical cultures [2]; rNFA mc5 hit call, aenm spike_duration_mean) of the same compound?
**A.** Its value is 0.

**Q.** And the “Concentrations at which active in the rNFA” value (2D rat cortical cultures [2]; ref Brown et al. [2016], Carstens et al. [2022], Frank et al. [2017b], Shafer et al. [2019], ToxCast invitrodb (v4.2))?
**A.** The value was “exceeding 450 µM”.

**Q.** And the “hitc CCTE_Shafer_MEA_dev_AB” value (2D rat cortical cultures [3])?
**A.** Its value is 0.

**Q.** What about the “hitc CCTE_Shafer_MEA_dev_LDH” value (2D rat cortical cultures [4]) of the same compound?
**A.** The value was 0.
